Reference: patent publication US8945846B2, “Mutations in the LNK gene in patients with myeloproliferative neoplasms and other hematolymphoid malignancies” (The Board of Trustees of the Leland Stanford Junior …, priority 2010, dated 2015)

Legend:
[1] = test system: BaF3-MPL cells expressing WT or mutant LNK; assay: JAK inhibitor growth assay of BaF3-MPL cells grown with TPO; type: cell-based; conditions: TPO 10 ng/mL, JAK inhibitor I 0.2 μM to 5 μM, FIG. 2C
Description: FIG. 2. LNK mutations cause dysregulated TPO-dependent growth and JAK2-STAT3/5 activation. BaF3-MPL cells were transduced with empty vector (EV), WT LNK (WT), or mutant LNK (DEL, E208Q, R392E). […] Viable cells were counted daily by staining with propidium iodide (PI) and quantitated with TruCount beads on a LSRII flow cytometer. Error bars represent the standard deviation of two replicates per sample. In Panel B, BaF3-MPL cells were stimulated with TPO (1 ng/ml) for the durations indicated, followed by measurement of JAK2, STAT3 and STAT5 activation via phospho-specific flow cytometry. […] Vertical lines denote the MFI of EV unstimulated cells for comparison. In Panel C, BaF3-MPL cells were cultured in the presence of DMSO control or concentrations of JAK inhibitor I ranging from 0.2 μM to 5 μM. Cumulative growth at four days (normalized to maximal growth for each cell line) is shown. Error bars represent the standard deviation of two replicates per sample.
BaF3-MPL cells were kindly provided by J. Tyner/B. Druker (Oregon Health and Sciences University, Portland, Oreg.) and were maintained in RPMI medium containing 10% FBS and IL-3 (1 ng/mL) (Peprotech, Rocky Hill, N.J.). […] Viable cells were counted daily by staining with propidium iodide (PI) and quantitated with TruCount beads (BD Biosciences, San Jose, Calif.) on a LSRII flow cytometer. […]

JAK2-STAT3/5 activation = assay: TPO-stimulated JAK2, STAT3 and STAT5 activation by phospho-specific flow cytometry in BaF3-MPL cells; type: cell-based; conditions: BaF3-MPL cells expressing WT or mutant LNK; pre-incubated two hours with 0.2 μM to 5 μM, then TPO 10 ng/mL; FIG. 5
Description: FIG. 5. Activation of JAK2-STAT3/5 in BaF3-MPL cells expressing WT or mutant LNK requires JAK activity. BaF3-MPL cells expressing WT or mutant LNK were pre-incubated with DMSO or JAK inhibitor I at concentrations ranging from 0.2 μM to 5 μM for two hours prior to stimulation with TPO (10 ng/mL). JAK2, STAT3, and STAT5 activation were then measured by phospho-specific flow cytometry. Line graphs represent % maximal activation for each cell line.
BaF3-MPL cells were starved overnight in cytokine-free media and stimulated with TPO (1 or 10 ng/mL) for time points ranging from 15 minutes to 16 hours at 37° C. Peripheral blood samples were stimulated with either TPO (50 ng/ml) or G-CSF (20 ng/ml)(Peprotech, Rocky Hill, N.J.) for 15 minutes at 37° C. PBMCs were rested in RPMI with 10% FBS for one hour at 37° C. prior to cytokine stimulation. For the JAK inhibitor experiments, PBMCs were incubated with 5 μM JAK inhibitor I (EMD/Calbiochem, San Diego, Calif.) for the final 30 minutes prior to cytokine stimulation. Following cytokine stimulation, cells were fixed in paraformaldehyde (Electron Microscopy Sciences, Hatfield, Pa.). […] Cells were measured on a BD LSRII flow cytometer. […] Flow cytometry data was obtained with FACSDiva software and analyzed using FlowJo (Tree Star, Ashland, Oreg.) or Cytobank according to standard procedures. […]

[2] = test system: STAT3/5 activation (pSTAT3+/5+ subpopulation); assay: Cytokine-stimulated STAT3/5 activation by phospho-specific flow cytometry in patient peripheral blood immature myeloid cells; type: cell-based, human; conditions: samples from LNK DEL, E208Q, JAK2 V617F, MPL W515L patients and normal donor; 5 μM for 30 minutes, then TPO 50 ng/ml or G-CSF 20 ng/ml for 15 minutes; FIG. 3A
Description: FIG. 3. Identification of a cytokine-responsive pSTAT3+/pSTAT5+ population in CD34+ early progenitors from patients with LNK mutations. Peripheral blood samples from patients with the LNK DEL and E208Q mutations, as well as PMF patients with the JAK2 V617F and MPL W515L mutations, were compared with normal donor. CD3-/CD66-/CD33mid immature myeloid cells are shown in Panels A-C. In Panel A, samples were pre-incubated with either DMSO or JAK inhibitor I (5 μM) for 30 minutes, and then stimulated with either TPO (50 ng/ml) or G-CSF (20 ng/ml) for 15 minutes, prior to assessment of STAT3 and STAT5 activation by phospho-specific flow cytometry. […] For Panels A and B, numbers depicted in each quadrant represent the percentage of total cells present in each quadrant gate. […] DNA was isolated from each subset, and allele-specific quantitative PCR for the DEL mutation was performed. […]
BaF3-MPL cells were starved overnight in cytokine-free media and stimulated with TPO (1 or 10 ng/mL) for time points ranging from 15 minutes to 16 hours at 37° C. […] Cells were measured on a BD LSRII flow cytometer. […] Flow cytometry data was obtained with FACSDiva software and analyzed using FlowJo (Tree Star, Ashland, Oreg.) or Cytobank according to standard procedures. […]

JAK inhibitor I
TPO-dependent growth (cumulative growth at four days) [1]: remained susceptible to JAK inhibition
Inhibition of JAK2-STAT3/5 activation (JAK2-STAT3/5 activation): effectively inhibited
Effect on cytokine-responsive pSTAT3+/5+ subpopulation [2]: completely eradicated
